As a reminder, the Kd is the free concentration of one partner at which half of the binding sites on the other are occupied at equilibrium, for simple one-to-one binding.

The values below come from article PMC8304516, “A Fungal Defensin Targets the SARS−CoV−2 Spike Receptor−Binding Domain” (Journal of Fungi, 2021).

One assay concerns the target Spike RBD (SARS-CoV-2) (UniProt P0DTC2). The following applies: cited from earlier work.
The target in another assay is RBD. The following applies: binding to RBD; cited from earlier work.
Another assay concerns the target SARS−CoV−2 Spike RBD (Severe acute respiratory syndrome coronavirus 2, UniProt P0DTC2). Kind of assay: biochemical. It is filed as binding. The settings on record: KD; SD.

Bridge positions count the residues as written; N and C are the ends. Peptide text beside a SMILES is read from it.

As to “human beta-defensin 2 (from UniProt O15263)”, the Kd with Spike RBD (SARS-CoV-2) is 300 nM.

Consider human β−defensin 2 [hBD−2], for which the Kd at RBD is around 300 nM.

Compound `CC[C@H](C)[C@@H]1NC(=O)[C@H](CO)NC(=O)[C@H](CC(C)C)NC(=O)[C@@H]2CSSC[C@@H](C(=O)NCC(=O)N[C@@H](CCCCN)C(=O)N[C@@H](CCC(N)=O)C(=O)O)NC(=O)[C@H]([C@@H](C)O)NC(=O)[C@@H]3CSSC[C@H](NC(=O)[C@H](CCC(=O)O)NC(=O)[C@H](CC(N)=O)NC(=O)[C@H](CCCCN)NC(=O)[C@H](CC(N)=O)NC(=O)[C@H](Cc4ccccc4)NC(=O)[C@@H]4CCCN4C(=O)[C@@H](NC(=O)CNC(=O)[C@H](Cc4ccccc4)NC(=O)CN)CSSC[C@H](NC(=O)[C@H](Cc4ccccc4)NC(=O)CNC(=O)[C@H](Cc4ccccc4)NC(=O)[C@H](CCCCN)NC(=O)[C@H](CCCNC(=N)N)NC(=O)CNC1=O)C(=O)N[C@@H](C)C(=O)NCC(=O)N1CCC[C@H]1C(=O)N[C@@H](CC(C)C)C(=O)N[C@@H](CCCNC(=N)N)C(=O)N[C@@H](C)C(=O)N[C@@H]([C@@H](C)O)C(=O)N3)C(=O)N[C@@H](Cc1c[nH]cn1)C(=O)N[C@@H](C)C(=O)N[C@@H](Cc1c[nH]cn1)C(=O)N2` [rE8K] (H-GFGCPFNKNECHAHCLSIGRKFGFCAGPLRATCTCGKQ-OH; disulfide 4-25, 11-33, 15-35) displayed a Kd on SARS−CoV−2 Spike RBD of 1900 ± 570 nM.
